pIC50: −log10 of the molar value. Like-named read-outs stand apart in the source and are kept apart here.
Molecular target: BTK (Homo sapiens (Human), UniProt Q06187)
Assay: Btk in vitro inhibitory activity (one of Method A TR-FRET, Method B electrophoretic mobility shift, Method C radiometric filter binding)
Assay type: biochemical
[1] = determined using one of the methods of Example 355a, 355b and 355c, read-out: BTK IC50

BTK, sequence (Q06187 whole entry): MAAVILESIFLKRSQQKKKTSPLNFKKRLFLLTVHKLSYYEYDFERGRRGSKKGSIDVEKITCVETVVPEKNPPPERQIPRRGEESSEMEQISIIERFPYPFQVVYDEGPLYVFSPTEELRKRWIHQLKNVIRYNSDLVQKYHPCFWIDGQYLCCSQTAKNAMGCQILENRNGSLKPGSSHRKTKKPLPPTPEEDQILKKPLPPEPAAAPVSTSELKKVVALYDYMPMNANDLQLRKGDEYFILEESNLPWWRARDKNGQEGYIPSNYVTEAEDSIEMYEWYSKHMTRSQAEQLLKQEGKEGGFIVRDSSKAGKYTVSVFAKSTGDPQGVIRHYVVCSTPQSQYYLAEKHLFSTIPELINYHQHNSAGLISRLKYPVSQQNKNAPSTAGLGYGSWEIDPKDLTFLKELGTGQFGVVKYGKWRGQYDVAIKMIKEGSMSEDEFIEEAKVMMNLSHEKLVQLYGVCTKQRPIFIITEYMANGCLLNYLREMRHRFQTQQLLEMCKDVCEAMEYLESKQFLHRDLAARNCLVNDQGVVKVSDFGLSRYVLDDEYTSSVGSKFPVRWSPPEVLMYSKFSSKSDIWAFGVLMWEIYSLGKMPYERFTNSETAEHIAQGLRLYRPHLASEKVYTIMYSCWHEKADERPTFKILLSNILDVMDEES

Row | Compound | pIC50 [1] | pIC50 (Btk (IC50)) | pIC50 (read-out: Btk (IC50)) | pIC50
1 | CC1[C@H](NC(=O)C2CC2)CCCN1c1cnc(C(N)=O)c(Nc2ccc(C3CCN(C4CCCC4)CC3)cc2)n1 (stereo in doubt) [Example 349, (R)-3-(4-(1-cyclopentylpiperidin-4-yl)phenylamino)-5-(3-(cyclopropanecarboxamido)-2-methylpiperidin-1-yl)pyrazine-2-carboxamide] | > 8.00 |  |  | 
2 | CN(C)C(=O)N[C@@H]1CCCN(c2cnc(C(N)=O)c(Nc3cnn(C4CC4)c3)n2)C1 [Example 216, (R)-3-(1-cyclopropyl-1H-pyrazol-4-ylamino)-5-(3-(3,3-dimethylureido)piperidin-1-yl)pyrazine-2-carboxamide] | 7.00 to 8.00 |  |  | 
3 | C[C@H]1[C@H](N)CCCN1c1cnc(C(N)=O)c(Nc2ccc(C3CCN(C4CCCC4)CC3)cc2)n1 [Example 231, 5-((2S,3R)-3-amino-2-methylpiperidin-1-yl)-3-(4-(1-cyclopentylpiperidin-4-yl)phenylamino)pyrazine-2-carboxamide] | 6.00 to 7.00 | 6.00 to 7.00 |  | 
4 | NC(=O)c1nnc(N2CCC[C@@H](NC(=O)C3CCN(C4CCCC4)CC3)C2)nc1Nc1ccc(C(=O)N2CCOCC2)cc1 [Example 33, (R)-3-(3-(1-cyclopentylpiperidine-4-carboxamido)piperidin-1-yl)-5-(4-(morpholine-4-carbonyl)phenylamino)-1,2,4-triazine-6-carboxamide] | 7.00 to 8.00 |  |  | 
5 | C=CC(=O)N1CCC[C@@H](Nc2nnc(C(N)=O)c(Nc3ccc(C(=O)N4CCOCC4)cc3)n2)C1 [Example 65, (R)-3-(1-acryloylpiperidin-3-ylamino)-5-(4-(morpholine-4-carbonyl)phenylamino)-1,2,4-triazine-6-carboxamide] | > 8.00 |  |  | 
6 | C[C@@H]1[C@H](NC(=O)N(C)C)CCCN1c1cnc(C(N)=O)c(Nc2ccc(C3(C#N)CCN(C4CCCC4)CC3)cc2)n1 [Example 250, 3-(4-(4-cyano-1-cyclopentylpiperidin-4-yl)phenylamino)-5-((2R,3R)-3-(3,3-dimethylureido)-2-methylpiperidin-1-yl)pyrazine-2-carboxamide] | > 8.00 |  | > 8.00 | 
7 | COc1ccc(C(=O)N[C@@H]2CCCN(c3cnc(C(N)=O)c(Nc4ccc(C5CCN(CC(F)(F)F)CC5)cc4)n3)C2)cc1 [Example 137, (R)-5-(3-(4-methoxybenzamido)piperidin-1-yl)-3-(4-(1-(2,2,2-trifluoroethyl)piperidin-4-yl)phenylamino)pyrazine-2-carboxamide] | 7.00 to 8.00 | 7.00 to 8.00 |  | 
8 | COc1ccc(C(=O)N[C@@H]2CCCN(c3cnc(C(N)=O)c(Nc4ccc(C5CCN(C(=O)N(C)C)CC5)cc4)n3)C2)cc1 [Example 142, (R)-3-(4-(1-(dimethylcarbamoyl)piperidin-4-yl)phenylamino)-5-(3-(4-methoxybenzamido)piperidin-1-yl)pyrazine-2-carboxamide] | 7.00 to 8.00 | 7.00 to 8.00 |  | 
9 | CN(C)C(=O)N1CCC[C@@H]2[C@H]1CCCN2c1cnc(C(N)=O)c(Nc2ccc(C3CCN(C4CCCC4)CC3)cc2)n1 [Example 289, (4aR,8aR)-5-(5-carbamoyl-6-(4-(1-cyclopentylpiperidin-4-yl)phenylamino)pyrazin-2-yl)-N,N-dimethyloctahydro-1,5-naphthyridine-1(2H)-carboxamide] | 7.00 to 8.00 |  |  | 
10 | N#CC1(C(=O)N[C@@H]2CCCN(c3nnc(C(N)=O)c(Nc4ccc(C(=O)N5CCOCC5)cc4)n3)C2)CC1 [Example 28, (R)-3-(3-(1-cyanocyclopropanecarboxamido)piperidin-1-yl)-5-(4-(morpholine-4-carbonyl)phenylamino)-1,2,4-triazine-6-carboxamide] | 7.00 to 8.00 |  |  | 
11 | CN(C)C(=O)N[C@@H]1CCCN(c2cnc(C(N)=O)c(Nc3ccc(C4(CN)CC4)cc3)n2)C1 [Example 201, (R)-3-(4-(1-(aminomethyl)cyclopropyl)phenylamino)-5-(3-(3,3-dimethylureido)piperidin-1-yl)pyrazine-2-carboxamide] | 7.00 to 8.00 |  |  | 
12 | C=CC(=O)N1CCC(c2ccc(Nc3nc(N4CCC[C@@H](NC(=O)N5CCCCC5)C4)nnc3C(N)=O)cc2)CC1 [Example 340] | > 8.00 |  |  | 
13 | COc1ccc(C(=O)N[C@@H]2CCCN(c3cnc(C(N)=O)c(Nc4ccc(OCCN(C)C)cc4)n3)C2)cc1 [Example 115, (R)-3-(4-(2-(dimethylamino)ethoxy)phenylamino)-5-(3-(4-methoxybenzamido)piperidin-1-yl)pyrazine-2-carboxamide] | > 8.00 |  |  | 
14 | CN1CCCN([C@@H]2CCCN(c3cnc(C(N)=O)c(Nc4ccc(C5CCN(C6CCCC6)CC5)cc4)n3)C2)C1=O [Example 282, (R)-3-(4-(1-cyclopentylpiperidin-4-yl)phenylamino)-5-(3-(3-methyl-2-oxotetrahydropyrimidin-1(2H)-yl)piperidin-1-yl)pyrazine-2-carboxamide] | > 8.00 |  | > 8.00 | 
15 | CC(C)N1CCC(c2ccc(Nc3nc(N4CCC[C@@H](NC(=O)N(C)C)C4)cnc3C(N)=O)cc2)CC1 [Example 208, (R)-5-(3-(3,3-dimethylureido)piperidin-1-yl)-3-(4-(1-isopropylpiperidin-4-yl)phenylamino)pyrazine-2-carboxamide] | > 8.00 |  | > 8.00 | 
16 | NC(=O)c1ncc(N2CCC[C@@H](N3CCN(C4CC4)C3=O)C2)nc1Nc1ccc(C2CCN(C3CCCC3)CC2)cc1 [Example 277, (R)-3-(4-(1-cyclopentylpiperidin-4-yl)phenylamino)-5-(3-(3-cyclopropyl-2-oxoimidazolidin-1-yl)piperidin-1-yl)pyrazine-2-carboxamide] | > 8.00 |  | > 8.00 | 
17 | COc1ccc(C(=O)N[C@@H]2CCCN(c3nnc(C(N)=O)c(Nc4ccc(C(=O)N5CCOCC5)cc4)n3)C2)cc1 [Example 10, (R)-3-(3-(4-methoxybenzamido)piperidin-1-yl)-5-(4-(morpholine-4-carbonyl)phenylamino)-1,2,4-triazine-6-carboxamide] | > 8.00 |  |  | 
18 | CN(C)C/C=C/C(=O)N1CCC[C@@H](Nc2nnc(C(N)=O)c(Nc3ccc(S(C)(=O)=O)cc3)n2)C1 [Example 106, (R,E)-3-(1-(4-(dimethylamino)but-2-enoyl)piperidin-3-ylamino)-5-(4-(methylsulfonyl)phenylamino)-1,2,4-triazine-6-carboxamide] | > 8.00 |  |  | 
19 | CN(C)C(=O)N[C@@H]1CCCN(c2cnc(C(N)=O)c(Nc3ccc(C4(C)CCN(C(=O)N(C)C)CC4)cc3)n2)C1 [Example 223, (R)-3-(4-(1-(dimethylcarbamoyl)-4-methylpiperidin-4-yl)phenylamino)-5-(3-(3,3-dimethylureido)piperidin-1-yl)pyrazine-2-carboxamide] | > 8.00 |  | > 8.00 | 
20 | CN(C)C(=O)N[C@@H]1CCCN(c2cnc(C(N)=O)c(Nc3ccc(C4CCN(C5CCCCC5)CC4)cc3)n2)C1 [Example 210, (R)-3-(4-(1-cyclohexylpiperidin-4-yl)phenylamino)-5-(3-(3,3-dimethylureido)piperidin-1-yl)pyrazine-2-carboxamide] | > 8.00 |  | > 8.00 | 
21 | CN(C)C(=O)N[C@@H]1CCCN(c2cnc(C(N)=O)c(Nc3ccc(C4(C#N)CCCC4)cc3)n2)C1 [Example 203, (R)-3-(4-(1-cyanocyclopentyl)phenylamino)-5-(3-(3,3-dimethylureido)piperidin-1-yl)pyrazine-2-carboxamide] | > 8.00 | > 8.00 |  | 
22 | CN(C)C(=O)N[C@@H]1CCCN(c2cnc(C(N)=O)c(Nc3ccc(C(C)(C)C(N)=O)cc3)n2)C1 [Example 198, (R)-3-(4-(1-amino-2-methyl-1-oxopropan-2-yl)phenylamino)-5-(3-(3,3-dimethylureido)piperidin-1-yl)pyrazine-2-carboxamide] | 7.00 to 8.00 |  | 7.00 to 8.00 | 
23 | CN(C)C(=O)N1CC[C@@H]2[C@H]1CCCN2c1cnc(C(N)=O)c(Nc2ccc(C3CCN(C4CCCC4)CC3)cc2)n1 (racemic) [Example 287, (3aR,7aR)-4-(5-carbamoyl-6-(4-(1-cyclopentylpiperidin-4-yl)phenylamino)pyrazin-2-yl)-N,N-dimethyloctahydro-1H-pyrrolo[3,2-b]pyridine-1-carboxamide] | 7.00 to 8.00 |  | 7.00 to 8.00 | 
24 | CN1CCN([C@@H]2CCCN(c3cnc(C(N)=O)c(Nc4ccccc4)n3)C2)C1=O [Example 261, (R)-5-(3-(3-methyl-2-oxoimidazolidin-1-yl)piperidin-1-yl)-3-(phenylamino)pyrazine-2-carboxamide] | 7.00 to 8.00 |  |  | 7.00 to 8.00
25 | CCOc1ccc(C(=O)N[C@@H]2CCCN(c3nnc(C(N)=O)c(Nc4ccc(C#N)cc4)n3)C2)cc1 [Example 159, (R)-5-(4-cyanophenylamino)-3-(3-(4-ethoxybenzamido)piperidin-1-yl)-1,2,4-triazine-6-carboxamide] | 6.00 to 7.00 | 6.00 to 7.00 |  | 
26 | CCOc1ccc(C(=O)N[C@@H]2CCCN(c3nnc(C(N)=O)c(Nc4ccc(C(=O)N5CCOCC5)cc4)n3)C2)cc1 [Example 88, (R)-3-(3-(4-ethoxybenzamido)piperidin-1-yl)-5-(4-(morpholine-4-carbonyl)phenylamino)-1,2,4-triazine-6-carboxamide] | > 8.00 |  | > 8.00 | 
27 | CCC(=O)N1CCC(c2ccc(Nc3nc(N4CCC[C@@H](N(C)C(=O)N(C)C)C4)cnc3C(N)=O)cc2)CC1 [Example 227, (R)-3-(4-(1-propionylpiperidin-4-yl)phenylamino)-5-(3-(1,3,3-trimethylureido)piperidin-1-yl)pyrazine-2-carboxamide] | 7.00 to 8.00 | 7.00 to 8.00 |  | 
28 | NC(=O)c1ncc(N2CCC[C@@H](NC(=O)N3CCCCC3)C2)nc1Nc1ccc(C2CCN(C=O)CC2)cc1 [Example 148, (R)-3-(4-(1-formylpiperidin-4-yl)phenylamino)-5-(3-(piperidine-1-carboxamido)piperidin-1-yl)pyrazine-2-carboxamide] | > 8.00 |  | > 8.00 | 
29 | CCN(CC)C(=O)N[C@@H]1CCCN(c2cnc(C(N)=O)c(Nc3ccc(C4CCN(C)CC4)cc3)n2)C1 [Example 167, (R)-5-(3-(3,3-diethylureido)piperidin-1-yl)-3-(4-(1-methylpiperidin-4-yl)phenylamino)pyrazine-2-carboxamide] | > 8.00 |  | > 8.00 | 

Source: US9656988B2 (Pharmacyclics LLC, priority 2013, dated 2017)
